In this test the test system is hyperuricemic mice. Nature of the test: Serum UA in OXO- and yeast extract-induced hyperuricemic mice. As to conditions: BHA (10 μg and 50 μg intraperitoneal), P<0.05. The test is classed as in vivo, Balb/C mice. How it is done:
Male Balb/C mice (n=50, 8 weeks: 18-22 g), purchased from Yisi Experimental Animal Technology Company Ltd, Jilin, China (SCXK (Ji)-2016-0003). These mice were housed in plastic cages and maintained on a 12-h light/12-h dark cycle (lights on 7:00-19:00 h) under standard laboratory conditions of 55% relative humidity and 23±1° C. They were given standard feed and tap water ad libitum. All experimental procedures were approved by the Animal Ethics Committee of Jilin University (Reference NO. 201605).
Due to the presence of uricase in mice, a hyperuricemic mouse model was established by using uricase inhibitor and large amounts of purine. Mice were randomly divided into five groups (n=10), including the control group (NC), model group (MC), 20 mg/kg of AL (Shimao Tianjie Pharmaceutical Co. Ltd, Jiangsu, China) group, 10 μg BHA group (10BHA) and 50 μg BHA group (50BHA). Oral administration of AL and intraperitoneal injection of BHA were administered according to the required dose, and all mice were gavage fed 20 g/kg yeast extract powder 12 h prior to the administration of AL and BHA except for NC mice for 8 days. […]
The serum UA concentrations and XO levels in the serum and liver were determined with a standard diagnostic kit (MAK077, MAK078 Sigma, USA) according to the manufacturer's instructions.

On to N-butyrylated HA [BHA], for which the “serum UA levels” value is “significantly suppressed serum UA levels”.

Values taken from US11679123B2, “N-acylated hyaluronic acid for hyperuricemia and gouty arthritis” (Queen's University at Kingston, priority 2018, dated 2023).
